Measured values published in the supplement of paper PMC9663587.

What was measured:
[1] = compound: T1, CN1CC[C@H](c2c(O)cc(O)c3c(=O)cc(-c4ccccc4Cl)oc23)[C@H](O)C1 [Flavopiridol]; test: increase in dead-cell fraction, 72 h; higher = more death;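 note: breast cancer cell lines in 384-well plates, stained with Hoechst plus LIVE/DEAD far red dye and imaged, cells above an LDR intensity threshold counted dead, Hoechst-negative corpses included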
[2] = compound: CC(=O)c1c(C)c2cnc(Nc3ccc(N4CCNCC4)cn3)nc2n(C2CCCC2)c1=O; test: as above
[3] = compound: CCN1CCN(Cc2ccc(Nc3ncc(F)c(-c4cc(F)c5nc(C)n(C(C)C)c5c4)n3)nc2)CC1; test: as above
[4] = compound: T2, CN(C)C(=O)c1cc2cnc(Nc3ccc(N4CCNCC4)cn3)nc2n1C1CCCC1 [LEE011/Ribociclib]; test: as above
[5] = compound: T1, Flavopiridol; test: GR value, 72 h; higher = faster growth (1 = untreated, <0 = killing);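 note: breast cancer and non-malignant breast epithelial lines, nine half-log doses, viable cells counted by Hoechst and LIVE/DEAD dye imaging versus time-zero plates and DMSO controls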
[6] = compound: CC(=O)c1c(C)c2cnc(Nc3ccc(N4CCNCC4)cn3)nc2n(C2CCCC2)c1=O; test: as above
[7] = compound: CCN1CCN(Cc2ccc(Nc3ncc(F)c(-c4cc(F)c5nc(C)n(C(C)C)c5c4)n3)nc2)CC1; test: as above
[8] = compound: CC(=O)c1c(C)c2cnc(Nc3ccc(N4CCN(CCOCCOCCOCCNC(=O)COc5cccc6c5C(=O)N(C5CCC(=O)NC5=O)C6=O)CC4)cn3)nc2n(C2CCCC2)c1=O [BSJ-03-123]; test: as above
[9] = compound: CCc1cnn2c(NCc3ccc[n+]([O-])c3)cc(N3CCCC[C@H]3CCO)nc12; test: as above
[10] = compound: T2, LEE011/Ribociclib; test: as above
[11] = compound: CCOc1cc2ncc(C#N)c(Nc3ccc(OCc4ccccn4)c(Cl)c3)c2cc1NC(=O)/C=C/CN(C)C [Neratinib/HKI272]; test: as above
[12] = compound: CN(C)C/C=C/C(=O)Nc1ccc(C(=O)Nc2cccc(Nc3ncc(Cl)c(-c4c[nH]c5ccccc45)n3)c2)cc1 [THZ1]; test: as above

Cell Line: ZR7530
- increase in dead-cell fraction ([1]; 0.0001 µM): -0.0012
- increase in dead-cell fraction ([1]; 0.0003162 µM): 0.0085
- increase in dead-cell fraction ([1]; 0.001 µM): -0.0127
- increase in dead-cell fraction ([1]; 0.003162 µM): -0.0029
- increase in dead-cell fraction ([1]; 0.01 µM): 0.0104
- increase in dead-cell fraction ([1]; 0.03162 µM): 0.0159
- increase in dead-cell fraction ([1]; 0.1 µM): 0.0202
- increase in dead-cell fraction ([1]; 0.3162 µM): -0.0023
- increase in dead-cell fraction ([1]; 1 µM): 0.191
- increase in dead-cell fraction ([2]; 0.0003162 µM): 0.0003
- increase in dead-cell fraction ([2]; 0.001 µM): -0.0021
- increase in dead-cell fraction ([2]; 0.003162 µM): 0.0019
- increase in dead-cell fraction ([2]; 0.01 µM): -0.0031
- increase in dead-cell fraction ([2]; 0.03162 µM): 0.0102
- increase in dead-cell fraction ([2]; 0.1 µM): 0.0763
- increase in dead-cell fraction ([2]; 0.3162 µM): 0.0662
- increase in dead-cell fraction ([2]; 1 µM): 0.0375
- increase in dead-cell fraction ([2]; 3.162 µM): 0.0348
- increase in dead-cell fraction ([3]; 0.001 µM): 0.0055
- increase in dead-cell fraction ([3]; 0.003162 µM): -0.0075
- increase in dead-cell fraction ([3]; 0.01 µM): 0.0272
- increase in dead-cell fraction ([3]; 0.03162 µM): 0.0826
- increase in dead-cell fraction ([3]; 0.1 µM): 0.0398
- increase in dead-cell fraction ([3]; 0.3162 µM): 0.0332
- increase in dead-cell fraction ([3]; 1 µM): 0.0706
- increase in dead-cell fraction ([3]; 3.162 µM): 0.0448
- increase in dead-cell fraction ([3]; 10 µM): 0.0361
- increase in dead-cell fraction ([4]; 0.001 µM): 0.0122
- increase in dead-cell fraction ([4]; 0.003162 µM): 0.0504
- increase in dead-cell fraction ([4]; 0.01 µM): 0.0152
- increase in dead-cell fraction ([4]; 0.03162 µM): 0.0426
- increase in dead-cell fraction ([4]; 0.1 µM): 0.0177
- increase in dead-cell fraction ([4]; 0.3162 µM): 0.0519
- increase in dead-cell fraction ([4]; 1 µM): 0.0531
- increase in dead-cell fraction ([4]; 3.162 µM): 0.0382
- increase in dead-cell fraction ([4]; 10 µM): 0.0703
- GR value ([5]; 0.0001 µM): 1.03 GR
- GR value ([5]; 0.0003162 µM): 1.14 GR
- GR value ([5]; 0.001 µM): 1.04 GR
- GR value ([5]; 0.003162 µM): 0.795 GR
- GR value ([5]; 0.01 µM): 0.93 GR
- GR value ([5]; 0.03162 µM): 1.13 GR
- GR value ([5]; 0.1 µM): 0.766 GR
- GR value ([5]; 0.3162 µM): 0.119 GR
- GR value ([5]; 1 µM): -0.662 GR
- GR value ([6]; 0.0003162 µM): 1.08 GR
- GR value ([6]; 0.001 µM): 1.08 GR
- GR value ([6]; 0.003162 µM): 1.06 GR
- GR value ([6]; 0.01 µM): 0.858 GR
- GR value ([6]; 0.03162 µM): 0.665 GR
- GR value ([6]; 0.1 µM): 0.482 GR
- GR value ([6]; 0.3162 µM): 0.321 GR
- GR value ([6]; 1 µM): 0.451 GR
- GR value ([6]; 3.162 µM): 0.253 GR
- GR value ([7]; 0.001 µM): 1.05 GR
- GR value ([7]; 0.003162 µM): 1.03 GR
- GR value ([7]; 0.01 µM): 0.769 GR
- GR value ([7]; 0.03162 µM): 0.57 GR
- GR value ([7]; 0.1 µM): 0.322 GR
- GR value ([7]; 0.3162 µM): 0.276 GR
- GR value ([7]; 1 µM): 0.282 GR
- GR value ([7]; 3.162 µM): 0.229 GR
- GR value ([7]; 10 µM): 0.127 GR
- GR value ([8]; 0.001 µM): 0.784 GR
- GR value ([8]; 0.003162 µM): 0.857 GR
- GR value ([8]; 0.01 µM): 0.824 GR
- GR value ([8]; 0.03162 µM): 0.72 GR
- GR value ([8]; 0.1 µM): 0.835 GR
- GR value ([8]; 0.3162 µM): 0.615 GR
- GR value ([8]; 1 µM): 0.398 GR
- GR value ([8]; 3.162 µM): 0.395 GR
- GR value ([8]; 10 µM): -0.258 GR
- GR value ([9]; 0.0001 µM): 0.895 GR
- GR value ([9]; 0.0003162 µM): 0.995 GR
- GR value ([9]; 0.001 µM): 1.06 GR
- GR value ([9]; 0.003162 µM): 0.953 GR
- GR value ([9]; 0.01 µM): 0.909 GR
- GR value ([9]; 0.03162 µM): -0.42 GR
- GR value ([9]; 0.1 µM): -0.601 GR
- GR value ([9]; 0.3162 µM): -0.696 GR
- GR value ([9]; 1 µM): -0.728 GR
- GR value ([10]; 0.001 µM): 0.854 GR
- GR value ([10]; 0.003162 µM): 0.695 GR
- GR value ([10]; 0.01 µM): 0.687 GR
- GR value ([10]; 0.03162 µM): 0.857 GR
- GR value ([10]; 0.1 µM): 0.607 GR
- GR value ([10]; 0.3162 µM): 0.463 GR
- GR value ([10]; 1 µM): 0.434 GR
- GR value ([10]; 3.162 µM): 0.443 GR
- GR value ([10]; 10 µM): 0.41 GR
- GR value ([11]; 0.0003162 µM): 0.699 GR
- GR value ([11]; 0.001 µM): 0.374 GR
- GR value ([11]; 0.003162 µM): 0.0338 GR
- GR value ([11]; 0.01 µM): -0.0663 GR
- GR value ([11]; 0.03162 µM): -0.199 GR
- GR value ([11]; 0.1 µM): -0.22 GR
- GR value ([11]; 0.3162 µM): -0.262 GR
- GR value ([11]; 1 µM): -0.411 GR
- GR value ([11]; 3.162 µM): -0.497 GR
- GR value ([12]; 0.0001 µM): 0.924 GR
- GR value ([12]; 0.0003162 µM): 1.19 GR
- GR value ([12]; 0.001 µM): 1.07 GR
- GR value ([12]; 0.003162 µM): 0.851 GR
- GR value ([12]; 0.01 µM): 0.985 GR
- GR value ([12]; 0.03162 µM): 0.289 GR
- GR value ([12]; 0.1 µM): -0.492 GR
- GR value ([12]; 0.3162 µM): -0.524 GR
- GR value ([12]; 1 µM): -0.638 GR
